Assay results from patent publication US8765746B2 (Millennium Pharmaceuticals, Inc., priority 2010, dated 2014).

Legend:
Format in all cases: biochemical
[1] = target: T1, PI3Kdelta (Homo sapiens, UniProt O00329); assay: Human PI3K delta enzyme assay (HTRF, as for PI3K alpha); details: for inhibition at 1.11 µM: read-out: PI3Kdelta % inh; for PI3Kdelta % inh: at 1.11 μM
T1 construct: His (N); host or cells: SF9 insect cells (baculovirus)
Description: (§1) The catalytic subunits of PI3Ks are cloned into either pDEST8(p110 alpha) or pDEST10(p110beta, p110delta, and p110gamma) as N-terminal His tagged fusion proteins using the Gateway system (Invitrogen, catalog#11804-010 for pDEST8 and 11806-015 for pDEST10). The sequences are verified before recombinant protein expression using the Baculovirus Expression System with Gateway® Technology. The accession numbers for the subunits are as follows:
(§2) The regulatory subunits of PI3Ks are cloned into pDEST8 as un-tagged protein using the Gateway system (Catalog#11804-010). The sequences are verified before recombinant protein expression using the Baculovirus Expression System with Gateway® Technology. The accession numbers for the subunits are as follows:
(§3) For expression of the p110 complexes, the p85 (MOI of 4) is co-infected with p110 alpha, beta, and delta respectively (1MOI) in SF9 cells and harvested at 60 hours post co-infection. P110 gamma was infected at 1 MOI and harvested at 60 hours post infection.
(§4) For purification, PI3Ks are purified by Ni-NTA Agarose (Qiagen #30250) followed by Mono Q 10/100 GL (Ge Healthcare #17-5167-01). VPS34 is purified by Glutathione Sepharose 4 Fast Flow (GE Healthcare #17-5132-03) followed by HiTrap Q (GE Healthcare #17-1153-01).
(§5) 0.5 uL compounds in DMSO are added to wells of a 384 well microtitre plate (Corning 3575). At room temperature: 10 ul PI3K reaction buffer (50 mM Hepes, 5 mM DTT, 150 mM NaCl, 10 mM beta-glycerophosphate, 10 mM MgCl2, 0.25 mM sodium cholate and 0.001% CHAPS, pH 7.00) containing ATP (25 uM, Promega) is added followed immediately by 10 ul PI3K reaction buffer containing di-C8 PI(4,5)P2 (3.5 uM, CellSignals) and PI3Kalpha (0.4875 nM, Millennium Protein Sciences Group) and the mixture is incubated with shaking at room temperature for 30 minutes. Then 5 ul PI3K stop mix (50 mM Hepes, 5 mM DTT, 150 mM NaCl, 0.01% Tween-20, 15 mM EDTA and 25 nM biotin-PI(3,4,5)P3 (Echelon) is added to quench the reaction followed immediately by addition of 5 ul HTRF detection mix (50 mM Hepes, 5 mM DTT, 150 mM NaCl, 0.01% Tween-20, 40 mM KF, 10 nM GST:GRP-1 PH domain (Millennium Protein Sciences Group), 15 nM Streptavidin-XL (CisBio) and 0.375 nM anti-GST Eu++ antibody (CisBio) at pH 7.00). The plates are then incubated for 1 hour at room temperature with shaking and then read on a BMG PheraStar Plus reader.
(§6) 2) Human PI3K beta, delta and gamma isoforms are tested using the procedure described for PI3K alpha above but with the following changes: PI3K beta (5.25 nM), PI3K delta (0.75 nM) and PI3K gamma (5 nM). All isoforms supplied by Millennium Protein Science Group.

[2] = target: T2, PI3Kgamma (Homo sapiens, UniProt P48736); assay: Human PI3K gamma enzyme assay (HTRF, as for PI3K alpha); details: for inhibition at 1.11 µM: read-out: PI3Kgamma % inh; for PI3Kgamma % inh: at 1.11 μM
T2 construct: His (N); host or cells: SF9 insect cells (baculovirus)
Description: as §1, §2, §3, §4, §5, §6

[3] = target: T3, PI3Kbeta (Homo sapiens, UniProt P42338); assay: Human PI3K beta enzyme assay (HTRF, as for PI3K alpha); details: for inhibition at 1.11 µM: read-out: PI3Kbeta % inh; for IC50: read-out: IC50 (inhibit PI3Kbeta); for inhibition at 1.11 µM / PI3Kbeta % inh: at 1.11 μM
T3 construct: His (N); host or cells: SF9 insect cells (baculovirus)
Description: as §1, §2, §3, §4, §5, §6

[4] = target: T4, PI3Kalpha (Homo sapiens, UniProt P42336); assay: Human PI3Kα enzyme assay (HTRF); details: for inhibition at 1.11 µM: read-out: PI3Kalpha % inh; for PI3Kalpha % inh: at 1.11 μM
T4 construct: His (N); host or cells: SF9 insect cells (baculovirus)
Description: as §1, §2, §3, §4
1) Human PI3Kα enzyme assay method
as §5

[5] = target: T5, VPS34 (Homo sapiens, UniProt Q8NEB9); assay: Human VPS34 enzyme assay (Adapta Universal Kinase Assay); details: for inhibition at 1.11 µM: 1 h, read-out: VPS34 % ihn; for VPS34 % ihn: at 1.11 μM
T5 construct: GST (N); host or cells: SF9 insect cells (baculovirus)
Protocol: VPS34 (accession number GB:BC033004) is cloned into pDEST20-Thombin as N-terminal GST tagged fusion proteins using the Gateway system (Invitrogen, catalog#11804-013). The sequences are verified before recombinant protein expression using the Baculovirus Expression System with Gateway® Technology.
For expression VPS34 was infected at 1MOI in SF9 cells and harvested 72 hours post infection.
For purification, VPS34 is purified by Glutathione Sepharose 4 Fast Flow (GE Healthcare #17-5132-03) followed by HiTrap Q (GE Healthcare #17-1153-01).
3) VPS34 is assayed using Adapta™ Universal Kinase Assay Kit (Invitrogen).
4) Human VPS34 enzyme assay method
100 mL compounds in DMSO are added to wells of a 384 well microtitre plate (Greiner 780076). At room temperature: 5 ul VPS34 reaction buffer (Invitrogen Assay Buffer Q (diluted 1 in 5 with nanopure water) plus 2 mM DTT and 2 mM MnCl2) containing ATP (20 uM, Promega) and 200 uM PI-PS substrate (Invitrogen PV5122) is added followed immediately by 5 ul VPS34 reaction buffer (as above) containing VPS34 (5 nM, Millennium Protein Sciences Group) and the mixture is incubated with shaking at room temperature for 1 hour. Then 5 ul VPS34 stop-detect mix (as per Invitrogen Adapta Assay kit (PV5009) instructions (contains kinase quench buffer, TR-FRET buffer, Adapta Eu anti-ADP antibody and Alexa Fluor 647 ADP tracer)) is added to quench the reaction. The plates are then incubated for 30 minutes at room temperature with shaking and then read on a BMG PheraStar Plus reader.

T4 sequence (P42336 whole entry): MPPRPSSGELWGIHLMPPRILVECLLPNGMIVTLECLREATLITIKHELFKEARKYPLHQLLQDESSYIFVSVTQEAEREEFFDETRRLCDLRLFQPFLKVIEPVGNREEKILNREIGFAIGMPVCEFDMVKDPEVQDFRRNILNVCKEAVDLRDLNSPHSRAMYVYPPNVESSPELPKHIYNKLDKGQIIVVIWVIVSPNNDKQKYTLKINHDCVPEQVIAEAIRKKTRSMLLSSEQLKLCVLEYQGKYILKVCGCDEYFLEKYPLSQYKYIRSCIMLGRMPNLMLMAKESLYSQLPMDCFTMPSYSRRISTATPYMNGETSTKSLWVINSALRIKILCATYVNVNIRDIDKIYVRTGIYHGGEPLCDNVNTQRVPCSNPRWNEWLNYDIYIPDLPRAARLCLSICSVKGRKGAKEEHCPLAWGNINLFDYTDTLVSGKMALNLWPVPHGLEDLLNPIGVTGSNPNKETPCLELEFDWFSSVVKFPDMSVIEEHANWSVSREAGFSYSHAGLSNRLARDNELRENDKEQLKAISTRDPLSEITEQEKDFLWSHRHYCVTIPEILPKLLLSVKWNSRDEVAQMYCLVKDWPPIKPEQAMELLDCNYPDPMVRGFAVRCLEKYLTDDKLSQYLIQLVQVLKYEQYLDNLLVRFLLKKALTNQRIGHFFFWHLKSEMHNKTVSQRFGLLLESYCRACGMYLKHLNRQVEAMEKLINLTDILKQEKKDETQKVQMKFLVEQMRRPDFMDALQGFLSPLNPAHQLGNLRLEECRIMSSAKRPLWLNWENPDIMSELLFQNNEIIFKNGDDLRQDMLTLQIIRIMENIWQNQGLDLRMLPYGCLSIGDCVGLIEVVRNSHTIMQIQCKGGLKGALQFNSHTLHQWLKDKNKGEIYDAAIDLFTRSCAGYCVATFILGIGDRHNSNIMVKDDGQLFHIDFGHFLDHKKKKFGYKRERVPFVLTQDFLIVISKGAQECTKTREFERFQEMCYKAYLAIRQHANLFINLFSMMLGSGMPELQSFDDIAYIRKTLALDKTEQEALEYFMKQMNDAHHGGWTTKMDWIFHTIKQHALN
T4 sequence (P27986 whole entry partner): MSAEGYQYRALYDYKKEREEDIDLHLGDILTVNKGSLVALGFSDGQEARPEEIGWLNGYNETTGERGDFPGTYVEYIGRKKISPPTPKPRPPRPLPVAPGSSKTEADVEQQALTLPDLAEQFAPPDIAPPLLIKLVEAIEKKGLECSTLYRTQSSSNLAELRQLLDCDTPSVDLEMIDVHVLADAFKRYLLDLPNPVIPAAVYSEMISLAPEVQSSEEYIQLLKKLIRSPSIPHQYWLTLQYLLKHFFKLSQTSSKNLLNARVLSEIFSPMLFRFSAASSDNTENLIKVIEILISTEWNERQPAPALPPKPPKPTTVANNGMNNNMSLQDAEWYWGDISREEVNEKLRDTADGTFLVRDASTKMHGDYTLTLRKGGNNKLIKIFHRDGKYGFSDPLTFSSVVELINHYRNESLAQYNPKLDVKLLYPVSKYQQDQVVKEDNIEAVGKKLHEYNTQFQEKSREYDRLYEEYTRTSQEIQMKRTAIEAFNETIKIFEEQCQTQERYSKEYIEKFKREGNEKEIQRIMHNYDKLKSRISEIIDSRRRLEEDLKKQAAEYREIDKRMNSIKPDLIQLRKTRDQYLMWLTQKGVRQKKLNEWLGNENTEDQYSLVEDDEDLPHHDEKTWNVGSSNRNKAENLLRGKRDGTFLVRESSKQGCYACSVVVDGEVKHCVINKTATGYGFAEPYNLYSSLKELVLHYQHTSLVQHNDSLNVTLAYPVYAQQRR
T5 sequence (Q8NEB9 whole entry): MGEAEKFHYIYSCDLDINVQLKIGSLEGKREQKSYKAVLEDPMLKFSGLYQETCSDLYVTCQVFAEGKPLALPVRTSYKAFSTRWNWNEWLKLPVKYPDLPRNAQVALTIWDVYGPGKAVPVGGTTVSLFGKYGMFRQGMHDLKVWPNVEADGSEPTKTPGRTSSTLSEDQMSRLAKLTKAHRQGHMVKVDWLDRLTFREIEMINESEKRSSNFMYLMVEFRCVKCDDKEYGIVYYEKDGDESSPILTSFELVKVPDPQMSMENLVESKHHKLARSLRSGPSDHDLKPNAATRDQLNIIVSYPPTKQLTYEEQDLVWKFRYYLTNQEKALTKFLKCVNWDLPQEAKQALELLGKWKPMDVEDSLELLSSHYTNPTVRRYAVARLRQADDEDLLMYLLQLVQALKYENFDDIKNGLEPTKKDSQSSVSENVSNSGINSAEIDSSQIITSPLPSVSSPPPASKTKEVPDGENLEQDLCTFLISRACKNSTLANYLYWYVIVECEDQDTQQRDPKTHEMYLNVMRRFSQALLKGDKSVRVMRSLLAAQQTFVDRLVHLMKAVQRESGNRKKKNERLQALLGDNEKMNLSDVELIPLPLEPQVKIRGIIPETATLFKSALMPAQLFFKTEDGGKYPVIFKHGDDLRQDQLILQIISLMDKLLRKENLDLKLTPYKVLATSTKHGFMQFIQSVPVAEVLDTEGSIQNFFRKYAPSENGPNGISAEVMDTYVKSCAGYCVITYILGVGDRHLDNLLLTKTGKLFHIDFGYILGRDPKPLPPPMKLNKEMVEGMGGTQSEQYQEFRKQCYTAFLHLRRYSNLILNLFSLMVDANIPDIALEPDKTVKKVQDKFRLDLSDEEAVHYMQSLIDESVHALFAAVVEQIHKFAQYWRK
T2 sequence (P48736 whole entry): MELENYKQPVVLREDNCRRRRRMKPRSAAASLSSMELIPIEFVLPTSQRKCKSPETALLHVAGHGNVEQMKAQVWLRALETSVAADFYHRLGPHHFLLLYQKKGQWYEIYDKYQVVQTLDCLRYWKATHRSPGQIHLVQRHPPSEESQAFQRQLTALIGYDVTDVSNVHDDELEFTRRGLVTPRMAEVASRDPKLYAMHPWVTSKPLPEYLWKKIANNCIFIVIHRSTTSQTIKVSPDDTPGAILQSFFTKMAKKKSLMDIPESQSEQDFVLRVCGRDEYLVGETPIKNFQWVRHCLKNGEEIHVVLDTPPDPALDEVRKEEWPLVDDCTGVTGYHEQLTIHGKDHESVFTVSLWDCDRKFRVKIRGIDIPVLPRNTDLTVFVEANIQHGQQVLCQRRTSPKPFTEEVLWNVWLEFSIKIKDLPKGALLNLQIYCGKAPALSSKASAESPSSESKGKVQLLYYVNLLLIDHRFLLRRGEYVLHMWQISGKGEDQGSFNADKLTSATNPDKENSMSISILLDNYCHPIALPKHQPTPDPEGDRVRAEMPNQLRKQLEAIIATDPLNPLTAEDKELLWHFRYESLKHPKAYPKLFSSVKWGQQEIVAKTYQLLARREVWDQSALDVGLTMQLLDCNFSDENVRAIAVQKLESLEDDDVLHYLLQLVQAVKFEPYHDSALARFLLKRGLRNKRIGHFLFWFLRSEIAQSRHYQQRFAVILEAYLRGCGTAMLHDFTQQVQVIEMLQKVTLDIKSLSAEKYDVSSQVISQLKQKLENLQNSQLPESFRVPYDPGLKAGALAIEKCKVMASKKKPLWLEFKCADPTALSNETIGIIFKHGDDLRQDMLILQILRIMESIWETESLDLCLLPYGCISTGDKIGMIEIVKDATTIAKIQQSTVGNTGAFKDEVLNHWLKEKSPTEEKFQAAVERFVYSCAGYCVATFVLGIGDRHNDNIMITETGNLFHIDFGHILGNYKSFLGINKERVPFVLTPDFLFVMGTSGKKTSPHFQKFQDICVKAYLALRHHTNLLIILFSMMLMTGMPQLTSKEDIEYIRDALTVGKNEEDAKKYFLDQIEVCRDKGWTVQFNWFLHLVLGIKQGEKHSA
T1 sequence (O00329 whole entry): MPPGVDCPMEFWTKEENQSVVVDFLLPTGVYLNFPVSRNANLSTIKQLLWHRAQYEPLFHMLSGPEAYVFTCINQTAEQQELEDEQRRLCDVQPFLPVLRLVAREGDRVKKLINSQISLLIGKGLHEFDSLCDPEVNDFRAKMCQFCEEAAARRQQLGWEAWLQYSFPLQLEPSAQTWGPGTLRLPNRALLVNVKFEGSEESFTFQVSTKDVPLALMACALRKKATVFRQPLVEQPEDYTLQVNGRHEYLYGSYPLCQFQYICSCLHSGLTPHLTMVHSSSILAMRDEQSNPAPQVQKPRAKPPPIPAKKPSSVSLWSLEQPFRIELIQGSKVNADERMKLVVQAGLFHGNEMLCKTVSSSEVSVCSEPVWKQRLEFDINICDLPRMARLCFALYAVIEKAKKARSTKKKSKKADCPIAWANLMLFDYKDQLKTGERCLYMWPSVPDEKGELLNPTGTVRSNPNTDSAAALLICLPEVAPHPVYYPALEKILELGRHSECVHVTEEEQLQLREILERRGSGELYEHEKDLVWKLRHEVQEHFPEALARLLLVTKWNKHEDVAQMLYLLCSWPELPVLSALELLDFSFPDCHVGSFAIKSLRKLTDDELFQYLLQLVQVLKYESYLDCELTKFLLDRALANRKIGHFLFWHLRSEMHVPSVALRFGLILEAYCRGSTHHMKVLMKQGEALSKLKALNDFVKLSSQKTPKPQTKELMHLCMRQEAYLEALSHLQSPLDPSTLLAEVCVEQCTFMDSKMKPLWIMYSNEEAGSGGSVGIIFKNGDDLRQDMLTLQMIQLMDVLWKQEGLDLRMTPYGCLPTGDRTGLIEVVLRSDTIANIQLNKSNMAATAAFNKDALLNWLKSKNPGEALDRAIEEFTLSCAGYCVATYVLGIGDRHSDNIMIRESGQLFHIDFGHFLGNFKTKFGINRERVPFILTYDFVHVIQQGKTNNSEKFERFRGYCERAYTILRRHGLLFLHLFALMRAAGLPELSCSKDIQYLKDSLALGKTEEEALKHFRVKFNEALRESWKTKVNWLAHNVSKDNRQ
T1 sequence (P27986 whole entry partner): as the sequence (P27986 whole entry partner) above

Compound: O=C1NCCC(c2ccc(Cl)cc2)c2cc(-c3ccncc3)sc21 (racemic) [Compound 8, 4-(4-chlorophenyl)-2-pyridin-4-yl-4,5,6,7-tetrahydro-8H-thieno[2,3-c]azepin-8-one]
- inhibition at 1.11 µM [1]: 59.2%
- inhibition at 1.11 µM [2]: 21.9%
- inhibition at 1.11 µM [3]: 102%
- IC50 [3]: < 100 nM
- inhibition at 1.11 µM [4]: 2.05%
- inhibition at 1.11 µM [5]: 2.55%

Compound: O=C1CCC(c2ccc(Cl)cc2)c2cc(-c3ccncc3)sc21 (racemic) [Compound 13, 4-(4-chlorophenyl)-2-pyridin-4-yl-5,6-dihydro-1-benzothiophen-7(4H)-one]
- inhibition at 1.11 µM [1]: 55.7%
- inhibition at 1.11 µM [2]: 10.8%
- inhibition at 1.11 µM [3]: 102%
- IC50 [3]: < 100 nM
- inhibition at 1.11 µM [4]: 3.1%
- inhibition at 1.11 µM [5]: 6.6%

Compound: O=S1(=O)NCC(O)(c2ccc(Cl)cc2)c2cc(-c3ccncc3)sc21 (racemic) [Compound 26, 4-(4-chlorophenyl)-6-pyridin-4-yl-3,4-dihydro-2H-thieno[3,2-e][1,2]thiazin-4-ol 1,1-dioxide]
- inhibition at 1.11 µM [1]: 37.9%
- inhibition at 1.11 µM [2]: 11.7%
- inhibition at 1.11 µM [3]: 105%
- IC50 [3]: < 100 nM
- inhibition at 1.11 µM [4]: 6.6%
- inhibition at 1.11 µM [5]: 1.2%

Compound: CC1(C)C(=O)c2sc(N3CCOCC3)cc2C1(C)c1ccc(Cl)cc1 (racemic) [Compound 118, 4-(4-chlorophenyl)-4,5,5-trimethyl-2-morpholino-4H-cyclopenta[b]thiophen-6(5H)-one]
- inhibition at 1.11 µM [1]: 54.6%
- inhibition at 1.11 µM [2]: 5.03%
- inhibition at 1.11 µM [3]: 63%
- inhibition at 1.11 µM [4]: 19.7%
- inhibition at 1.11 µM [5]: 9.51%

Compound: COC(=O)[C@@H]1C(=O)c2sc(-c3ccncc3)cc2[C@H]1c1ccc(Cl)cc1 (relative stereo) [Compound 29, trans-methyl 4-(4-chlorophenyl)-6-oxo-2-(pyridin-4-yl)-5,6-dihydro-4H-cyclopenta[b]thiophene-5-carboxylate]
- inhibition at 1.11 µM [1]: 20.9%
- inhibition at 1.11 µM [2]: 4.6%
- inhibition at 1.11 µM [3]: 87.8%
- IC50 [3]: 100 to 1000 nM
- inhibition at 1.11 µM [4]: 6%
- inhibition at 1.11 µM [5]: 1.4%

Compound: O=S1(=O)NCC(O)(c2ccc(Cl)cc2)c2cc(-c3ccncc3)sc21 (single isomer, unassigned) [Compound 2, 4-(4-chlorophenyl)-6-pyridin-4-yl-3,4-dihydro-2H-thieno[3,2-e][1,2]thiazin-4-ol 1,1-dioxide]
- PI3Kdelta % inh [1]: 63.100%
- PI3Kgamma % inh [2]: 21.200%
- PI3Kbeta % inh [3]: 110.400%
- IC50 [3]: < 100 nM
- PI3Kalpha % inh [4]: 3.200%
- VPS34 % ihn [5]: 4.300%

Compound: O=S1(=O)NCC(O)(c2ccc(Cl)cc2)c2cc(-c3ccncc3)sc21 (single isomer, unassigned) [Compound 9, 4-(4-chlorophenyl)-6-pyridin-4-yl-3,4-dihydro-2H-thieno[3,2-e][1,2]thiazin-4-ol 1,1-dioxide]
- PI3Kdelta % inh [1]: 41.900%
- PI3Kgamma % inh [2]: 3.300%
- PI3Kbeta % inh [3]: 67.200%
- IC50 [3]: 100 to 1000 nM
- inhibition at 1.11 µM [4]: 3.6%
- VPS34 % ihn [5]: −2.200%

Compound: O=C1NCCC(c2ccc(Cl)cc2)c2cc(-c3ccncc3)sc21 (single isomer, unassigned) [Compound 21, 4-(4-chlorophenyl)-2-pyridin-4-yl-4,5,6,7-tetrahydro-8H-thieno[2,3-c]azepin-8-one]
- PI3Kdelta % inh [1]: 79.150%
- PI3Kgamma % inh [2]: 24.700%
- PI3Kbeta % inh [3]: 111.967%
- IC50 [3]: < 100 nM
- inhibition at 1.11 µM [4]: 6.07%
- inhibition at 1.11 µM [5]: 9.1%

Compound: O=C1CCC(c2ccc(Cl)cc2)c2cc(-c3ccncc3)sc21 (single isomer, unassigned) [Compound 22, 4-(4-chlorophenyl)-2-pyridin-4-yl-5,6-dihydro-1-benzothiophen-7(4H)-one]
- inhibition at 1.11 µM [1]: 44.5%
- inhibition at 1.11 µM [2]: 14.2%
- PI3Kbeta % inh [3]: 97.500%
- IC50 [3]: < 100 nM
- PI3Kalpha % inh [4]: 0.600%
- inhibition at 1.11 µM [5]: 4.4%

Compound: N#Cc1c(N2CCOCC2)sc2c1C(c1ccc(Cl)cc1)OC2=O (centres unmarked) [Compound 3, 4-(4-chlorophenyl)-2-morpholin-4-yl-6-oxo-4,6-dihydrothieno[2,3-c]furan-3-carbonitrile]
- inhibition at 1.11 µM [3]: 65.7%
- IC50 [3]: 100 to 1000 nM
- inhibition at 1.11 µM [4]: 10.8%
- inhibition at 1.11 µM [5]: -2.5%

Compound: O=C1N[C@@H](C(=O)NCCO)[C@H](c2ccc(Cl)cc2)c2cc(N3CCOCC3)sc21 [Compound 153]
- inhibition at 1.11 µM [1]: 39.8%
- inhibition at 1.11 µM [2]: 9.08%
- PI3Kbeta % inh [3]: 87.14%
- PI3Kalpha % inh [4]: 20.40%

Compound: CC(C)NC(=O)[C@@H]1NC(=O)c2sc(N3CCOCC3)cc2[C@H]1c1ccc(Cl)cc1 [Compound 162]
- inhibition at 1.11 µM [1]: 41.8%
- inhibition at 1.11 µM [2]: 3.59%
- inhibition at 1.11 µM [3]: 70.6%
- inhibition at 1.11 µM [4]: 7.94%

Compound: N#Cc1c(N2CCOCC2)sc2c1C(c1ccc3ccccc3c1)NC2=O (centres unmarked) [Compound 169]
- inhibition at 1.11 µM [1]: 98.2%
- inhibition at 1.11 µM [2]: 71.3%
- inhibition at 1.11 µM [3]: 99.7%
- inhibition at 1.11 µM [4]: 50.6%

Compound: O=C1N[C@@H](C(=O)NCCCO)[C@H](c2ccc(Cl)cc2)c2cc(N3CCOCC3)sc21 [Compound 170]
- inhibition at 1.11 µM [1]: 51.6%
- inhibition at 1.11 µM [2]: 12.5%
- PI3Kbeta % inh [3]: 83.73%
- PI3Kalpha % inh [4]: 22.53%

Compound: O=C1NCCC(c2ccc3ccccc3c2)c2cc(N3CCOCC3)sc21 (centres unmarked) [Compound 175]
- inhibition at 1.11 µM [1]: 112%
- inhibition at 1.11 µM [2]: 43.8%
- inhibition at 1.11 µM [3]: 112%
- inhibition at 1.11 µM [4]: 66.9%

Compound: O=C1NCC(c2ccc(Cl)c(Cl)c2)c2cc(N3CCOCC3)sc21 (centres unmarked) [Compound 176, 4-(3,4-dichlorophenyl)-2-morpholino-5,6-dihydrothieno[2,3-c]pyridin-7(4H)-one]
- inhibition at 1.11 µM [1]: 108%
- inhibition at 1.11 µM [2]: 60.1%
- PI3Kbeta % inh [3]: 105.20%
- PI3Kalpha % inh [4]: 28.06%

Compound: Cc1cc(C2CNC(=O)c3sc(N4CCOCC4)c(C#N)c32)ccc1Cl (centres unmarked) [Compound 190]
- inhibition at 1.11 µM [1]: 101%
- inhibition at 1.11 µM [2]: 35.8%
- inhibition at 1.11 µM [3]: 123%
- inhibition at 1.11 µM [4]: 57.5%

Compound: CCNC(=O)[C@@H]1NC(=O)c2sc(N3CCOCC3)cc2[C@H]1c1ccc(Cl)cc1 [Compound 197]
- inhibition at 1.11 µM [1]: 47.4%
- inhibition at 1.11 µM [2]: 9.08%
- inhibition at 1.11 µM [3]: 84.1%
- PI3Kalpha % inh [4]: 19.34%
